This is an account of results in ChEMBL document CHEMBL1201862, “PubChem BioAssay data set” (2004).

Experiment in all cases: NCI anticancer screen, dose series, 48 h
In test [1] the test system is SR.
For test [2], the system named is MOLT-4.
For test [3], the system named is SK-MEL-5.
Test [4] concerns M14.
In test [5] the test system is HCC 2998.
In test [6] the test system is PC-3.
Test [7] has as its system MDA-N.
In test [8] the test system is SNB-75.
For test [9], the system named is BT-549.
The test system of test [10] is T47D.
Test [11] has as its system OVCAR-3.
The subject of test [12] is MDA-MB-231.
In test [13] the test system is CAKI-1.
In test [14] the test system is RPMI-8226.

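Briefly, cells in 96-well plates were exposed to five compound concentrations for 48 h, and endpoints were estimated by linear interpolation. GI50 marks 50% less growth.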 Calls of active or inactive are those of the source. Rule as the data show it: active = GI50 up to about 1.1 µM and inactive = higher. Starred links: 1 amine or outer side, 2 acyl side, 3 side chain; linkers in the order of their positions; H or OH if unused. Non-standard residues stand in square brackets, D forms with d. Residues, ends and D or L forms follow the SMILES beside them. *: point of attachment. X47 = CCC(=O)CC1CC(C)CC(C(=O)[*:2])N1[*:1]; X46 = CCCCCCCCC(C)C(=O)*; Aib = CC(C)(N)C(=O)O; X48 = CC(CN(C)CCO)N*

For `COc1ccc(/C=C/c2cc(O)cc(OC3OC(CO)C(O)C(O)C3O)c2)cc1O` (stereo not given), the GI50 was > 100 µM (inactive) in test [1]; > 100 µM (inactive) in test [2]; > 100 µM (inactive) in [3]; > 100 µM (inactive) in [4]; > 100 µM (inactive) in test [5]; 49.2 µM (inactive) in test [6]. In addition, the GI50 in test [7], in [8], in test [9], in test [10], in test [11] and in [12] was > 100 µM (inactive) each time. Further, the GI50 in test [13] was > 100 µM (inactive); in [14], 78.7 µM (inactive).

With `CC(=O)OC1C(O)COC(O[C@H]2CC[C@]34C[C@]35CC[C@]3(C)C([C@@]6(C)CC[C@@H](C(C)(C)O)O6)[C@@H](O)C[C@@]3(C)C5C[C@H](OC3OCC(O)C(O)C3O)[C@H]4C2(C)C)C1OC1OCC(O)C(O)C1O` (stereo not given in full), the GI50 in test [1], in [2], in test [3], in test [4], in [5] and in test [6] was > 100 µM (inactive) each time. Further, the GI50 in test [7], in [8], in test [9], in [10], in [11] and in test [12] was > 100 µM (inactive) throughout. Further, the GI50 in test [13] and in test [14] was > 100 µM (inactive) in each case.

Regarding `COc1ccc(N2C(=O)C(Cl)C2c2cc3cc(Br)ccc3nc2Cl)cc1` (stereo not given), the GI50 in [1] is 1.33 µM (inactive); in [2], 4.38 µM (inactive); in test [3], 4.37 µM (inactive); in [4] it was 4.86 µM (inactive); in test [5] it was 4.09 µM (inactive); in test [6], 7.13 µM (inactive). Besides, the GI50 in [7] is 5.31 µM (inactive); in [8], 20.5 µM (inactive); in [9], 4.46 µM (inactive); in test [10] it was 15.1 µM (inactive); in [11], 8.45 µM (inactive); in [12], 4.57 µM (inactive). In addition, the GI50 in test [13] was 6.32 µM (inactive); in [14], 6.59 µM (inactive).

Turning to `N#CC[C@@H](O)COc1ccccc1`, the GI50 in test [1], in test [2], in test [3], in test [4], in test [5] and in [6] was > 100 µM (inactive) in each case. Besides, the GI50 in test [7], in [8], in test [9], in test [10], in [11] and in test [12] was > 100 µM (inactive) each time. The GI50 in [13] and in test [14] was > 100 µM (inactive) each time.

For the molecule `CN(C)c1ccc(/C=C2\Oc3ccccc3C2=O)cc1`, the GI50 is 31 µM (inactive) in test [1]; > 100 µM (inactive) in test [2]; > 100 µM (inactive) in test [3]; > 100 µM (inactive) in [4]; > 100 µM (inactive) in [5]; > 100 µM (inactive) in [6]. The GI50 was 34.8 µM (inactive) in [7]; > 100 µM (inactive) in test [8]; > 100 µM (inactive) in test [9]; > 100 µM (inactive) in [10]; > 100 µM (inactive) in test [11]; > 100 µM (inactive) in test [12]. Moreover, the GI50 in test [13] and in [14] was > 100 µM (inactive) throughout.

`CCCCCCCCC(C)C(=O)N1CCCC1C(=O)N1C(CC(=O)CC)CC(C)CC1C(=O)NC(C)C(=O)NC(C)(C)C(=O)NC(C)(C)C(=O)NC(C(=O)NC(C)C(=O)NC(C)(C)C(=O)NC(C)(C)C(=O)NC(C)CN(C)CCO)C(C)CC` (stereo not given) (X46-P[X47]A[Aib][Aib]IA[Aib][Aib]-X48; configuration not given here): the GI50 is 0.0294 µM (active) in [1]; 0.08 µM (active) in test [2]; < 0.0135 µM (active) in [3]; 0.593 µM (active) in [4]; 0.0385 µM (active) in [5]; 0.0103 µM (active) in test [6]. For the same molecule, the GI50 in test [7] is 1.17 µM (inactive); in test [8], 0.382 µM (active); in test [9] it was 1.57 µM (inactive); in [10], < 0.01 µM (active); in [11], < 0.01 µM (active); in [12], 0.56 µM (active). The GI50 in test [13] is 0.818 µM (active); in test [14], < 0.0181 µM (active).

`Sc1ncnc2c1ncn2Cc1ccco1`: the GI50 in test [1], in [2], in [3], in [4], in test [5] and in [6] was > 100 µM (inactive) throughout. Also, the GI50 in [7], in test [8], in test [9], in test [10], in test [11] and in [12] was > 100 µM (inactive) in each case. In addition, the GI50 in [13] and in test [14] was > 100 µM (inactive) in each case.

With `CC(=O)OCCOCn1cnc2c(Cl)nc(Cl)nc21`, the GI50 in [1] is 3.87 µM (inactive); in test [2], 19.2 µM (inactive); in test [3], 18.1 µM (inactive); in test [4] it was 17.1 µM (inactive); in test [5], 12.2 µM (inactive); in test [6], 17 µM (inactive). In addition, the GI50 in test [7] is 17.4 µM (inactive); in [8] it was 21.5 µM (inactive); in test [9], 18.7 µM (inactive); in test [10], 10 µM (inactive); in [11], 14 µM (inactive); in [12] it was 15.3 µM (inactive). The figures for the GI50 in [13] and in test [14] were 0.275 µM (active) and 5.97 µM (inactive), respectively.

Consider `CSC1(SC2=NCCN2)SC2(NCCN2)S1`, for which the GI50 was 5.7 µM (inactive) in test [1]; 10.8 µM (inactive) in test [2]; 18.9 µM (inactive) in [3]; 21.3 µM (inactive) in test [4]; 15.5 µM (inactive) in test [5]; 18.5 µM (inactive) in [6]. Further, the GI50 in [7] is 20.5 µM (inactive); in test [8], 17.3 µM (inactive); in test [9] it was 21.4 µM (inactive); in test [10], 0.9 µM (active); in test [11], 15.8 µM (inactive); in test [12], 21.1 µM (inactive). In addition, the GI50 in test [13] is 13.6 µM (inactive); in [14], 2.77 µM (inactive).

Regarding `Oc1ccc(/C=N/c2ccccc2O)cc1`, the GI50 in [1] was 48.6 µM (inactive); in test [2], 51.2 µM (inactive); in [3] it was 20.2 µM (inactive); in [4], 35.5 µM (inactive); in test [5] it was 45.3 µM (inactive); in test [6], 34.1 µM (inactive). Also, the GI50 in test [7] is 18.3 µM (inactive); in test [8], > 100 µM (inactive); in [9], 67.8 µM (inactive); in test [10] it was 73.5 µM (inactive); in test [11] it was 40 µM (inactive); in test [12], 51.1 µM (inactive). The GI50 in [13] is 68.1 µM (inactive); in test [14], 22.5 µM (inactive).
